Measurements: patent publication US8034811B2, “Hydroxamic acid esters and pharmaceutical use thereof” (Leo Pharma A/S, priority 2003, dated 2011)

molecular target: T1, human intracellular domain of KDR (VEGF Receptor-2) (Homo sapiens, UniProt P35968); assay: In vitro KDR kinase assay; type: biochemical; conditions: IC50 as molar concentration; GST-KDR-cyt, substrate phospholipase Cγ, ATP 100 μM, 30 min room temperature, time-resolved fluorometry
T1 construct: A fusion protein containing the intracellular domain (amino acids 793 to 1357) of the KDR and N-terminally tagged to GST; made in house; host or cells: Sf9 insect cells (baculovirus, pDEST20) for GST-KDR-cyt; E. coli BL21 (pGEX-4T-1) for GST-PLCγ
Experimental: The intracellular domain of the KDR receptor was used in the in vitro KDR assay. This domain contains the tyrosine kinase domain of KDR, and when expressed in Sf9 cells, this domain is constitutively active i.e. the kinase domain is phosphorylated on tyrosine residues.
The compounds to be tested were dissolved in DMSO at 10 mM, stored at −20° C. and protected from light. The maximum concentration of DMSO in the in vitro assay was 0.1%. Control samples received the same concentration of solvent as the samples treated with the test compounds.
For the kinase assays, black 96 wells MaxiSorp microtiter plates were coated by an overnight incubation with 100 μl/well of a 2.5 μg/ml solution of phospholipase Cγ in TBS buffer (40 mM Tris-HCl, pH 7.4, 20 mM Mg(C2H3O2)2, 0.02% NaN3) at 4° C. The plates were washed 3 times with TBS buffer containing 0.1% Tween-20, and the residual binding sites were masked by incubation with 1% BSA in TBS buffer containing 0.1% Tween-20 for 1 h. The plates were washed again and the test compounds were added at final concentrations up to 10 μM, together with ATP at the final concentration of 100 μM in 50 μl TBS buffer/well. Then, 50 μl of the human intracellular domain of KDR (VEGF Receptor-2) finally diluted 3000-3500 fold were added and were incubated for 30 min at room temperature. The plates were washed and 100 μl of the Europium labelled PY-20 anti-phosphotyrosine antibody (Wallac, FIN) were incubated in each well at the concentration of approximately 114 ng/ml for 2 h. Then, the plates were washed and 100 μl of enhancer solution (Wallac, FIN) were incubated in each well for 5 min in the dark. The plates were read in a Victor 1420 multilabel counter, using a Europium protocol for time-resolved fluorometry (Wallac, FIN): excitation 340 nm, emission 615 nm, sample pulse cycle 400 μs. Fluorescence was measured for 400 μs between flashes after a delay time of 400 μs. The background measured in the absence of enzyme was subtracted from all samples. The molar concentrations that inhibited 50% of the maximal enzymatic activity (IC50) were calculated from the dose-response curve, by fitting a straight line between the two concentrations immediately above and below the 50% inhibition point (i.e. by solving the equation y=a+bx).

T1 sequence (P35968 794-1356 limits assumed): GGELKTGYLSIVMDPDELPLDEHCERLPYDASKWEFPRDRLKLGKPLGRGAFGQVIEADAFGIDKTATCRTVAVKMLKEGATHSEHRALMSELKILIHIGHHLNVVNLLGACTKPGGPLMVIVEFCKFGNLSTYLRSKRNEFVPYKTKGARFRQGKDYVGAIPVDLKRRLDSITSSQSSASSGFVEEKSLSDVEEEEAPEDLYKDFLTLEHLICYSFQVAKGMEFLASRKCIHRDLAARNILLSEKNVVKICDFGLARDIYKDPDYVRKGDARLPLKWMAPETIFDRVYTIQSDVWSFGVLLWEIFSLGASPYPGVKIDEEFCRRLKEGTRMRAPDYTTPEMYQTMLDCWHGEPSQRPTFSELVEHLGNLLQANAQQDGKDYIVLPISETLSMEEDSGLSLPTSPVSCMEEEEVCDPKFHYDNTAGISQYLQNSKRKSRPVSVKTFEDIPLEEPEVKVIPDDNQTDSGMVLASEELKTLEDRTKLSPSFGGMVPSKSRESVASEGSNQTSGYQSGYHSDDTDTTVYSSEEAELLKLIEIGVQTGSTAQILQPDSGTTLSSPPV

IC50	Compound
20 nM	Cc1nc(CONC(=O)c2ccccc2NCc2ccncc2)cs1 [Compound 32, N-(2-methyl-thiazol-4 ylmethoxy)-2-[(pyridin-4-ylmethyl)-amino]-benzamide]
7.94 nM	CNC(=O)Nc1cc(CNc2ccccc2C(=O)NOCc2ccc(C)c(F)c2F)ccn1 [Compound 213, N-(2,3-Difluoro-4-methyl-benzyloxy)-2-{[2-(3-methyl-ureido)-pyridin-4-ylmethyl]-amino}-benzamide]
79.4 nM	O=C(NOCc1ccccc1)c1ccccc1NCc1ccncc1 [Compound 1, N-Benzyloxy-2-[(pyridin-4-ylmethyl)-amino]-benzamide]
100 nM	COc1cc(CONC(=O)c2ccccc2NCc2ccncc2)cc(OC)c1OC [Compound 9, 2-[(pyridin-4-ylmethyl)-amino]-N-(3,4,5-trimethoxy-benzyloxy)-benzamide]
100 nM	COC(=O)c1cccc(CONC(=O)c2ccccc2NCc2ccncc2)c1 [Compound 87, 3-{2-[(Pyridin-4-ylmethyl)-amino]-benzoylaminooxymethyl}-benzoic acid methyl ester]
6.31 nM	O=C(CC1NC(=O)NC1=O)Nc1cc(CNc2ccccc2C(=O)NOCC2CCCC2)ccn1 (stereo not shown) [compound 228]
31.6 nM	CC(ONC(=O)c1ccccc1NCc1ccncc1)C1CCCC1 (stereo not shown) [Compound 123, N-(1-Cyclopentyl-ethoxy)-2-[(pyridin-4-ylmethyl)-amino]-benzamide]
50.1 nM	CCOC(=O)CNC(=O)Nc1cc(CNc2ccccc2C(=O)NOCc2ccc(C#N)cc2)ccn1 [compound 214]
63.1 nM	N#Cc1ccccc1CONC(=O)c1ccccc1NCc1ccncc1 [Compound 75, N-(2-Cyano-benzyloxy)-2-[(pyridin-4-ylmethyl)-amino]-benzamide]
79.4 nM	O=C(NOCc1ccc(F)cc1)c1ccccc1NCc1ccc2c(c1)CCO2 [Compound 195, 2-[(2,3-Dihydro-benzofuran-5-ylmethyl)-amino]-N-(4-fluoro-benzyloxy)-benzamide]
20 nM	COCC(=O)Nc1cc(CNc2ccccc2C(=O)NOCC2CCCC2)ccn1 [compound 246]
126 nM	O=C(NOCCCc1ccccc1)c1ccccc1NCc1ccncc1 [Compound 31, N-(3-Phenyl-propoxy)-2-[(pyridin-4-ylmethyl)-amino]-benzamide]
63.1 nM	N#Cc1ccc(CONC(=O)c2cccnc2NCc2ccncc2)cc1 [Compound 156, N-(4-Cyano-benzyloxy)-2-[(pyridin-4-ylmethyl)-amino]-nicotinamide]
20 nM	O=C(NOCc1cccc(Cl)c1Cl)c1ccccc1NCc1ccncc1 [Compound 18, N-(2,3-Dichloro-benzyloxy)-2-[(pyridin-4-ylmethyl)-amino]-benzamide]
126 nM	O=C(NOCc1cccc(Cl)c1)c1ccccc1NCc1ccncc1 [Compound 11, N-(3-Chloro-benzyloxy)-2-[(pyridin-4-ylmethyl)-amino]-benzamide]
39.8 nM	COc1cc(C#N)ccc1CONC(=O)c1ccccc1NCc1ccncc1 [Compound 79, N-(4-Cyano-2-methoxy-benzyloxy)-2-[(pyridin-4-ylmethyl)-amino]-benzamide]
100 nM	O=C(NOCc1ccccc1[N+](=O)[O-])c1ccccc1NCc1ccncc1 [Compound 3, N-(2-Nitro-benzyloxy)-2-[(pyridin-4-ylmethyl)-amino]-benzamide]
6.31 nM	N#Cc1ccc(CONC(=O)c2ccccc2NCc2ccnc(NC(=O)CO)c2)cc1 [compound 224]
15.8 nM	O=C(NOCc1ccc2c(c1)CCC2)c1ccccc1NCc1ccncc1 [Compound 73, N-(Indan-5-ylmethoxy)-2-[(pyridin-4-ylmethyl)-amino]-benzamide]
7.94 nM	CCOC(=O)Nc1cc(CNc2ccccc2C(=O)NOCc2ccc(C#N)cc2)ccn1 [compound 225]
79.4 nM	CCCc1cc(CONC(=O)c2ccccc2NCc2ccncc2)on1 [Compound 110, N-(3-Propyl-isoxazol-5-ylmethoxy)-2-[(pyridin-4-ylmethyl)-amino]-benzamide]

IC50	Compound
126 nM	O=C(NOCc1ccc([N+](=O)[O-])cc1)c1ccccc1NCc1ccncc1 [Compound 2, N-(4-Nitro-benzyloxy)-2-[(pyridin-4-ylmethyl)-amino]-benzamide]
25.1 nM	O=C(NOCc1cccc(F)c1)c1ccccc1NCc1ccncc1 [Compound 21, N-(3-Fluoro-benzyloxy)-2-[(pyridin-4-ylmethyl)-amino]-benzamide]
79.4 nM	COC(=O)c1ccc(CONC(=O)c2ccccc2NCc2ccncc2)cc1 [Compound 26, 4-{2-[(pyridin-4-ylmethyl)-amino]-benzoylaminooxymethyl}-benzoic acid methyl ester]
7.94 nM	CNC(=O)Nc1cc(CNc2ccccc2C(=O)NOCC2CCCCO2)ccn1 (stereo not shown) [compound 245]
39.8 nM	COc1ccc(CONC(=O)c2ccccc2NCc2ccncc2)cc1 [Compound 7, N-(4-Methoxy-benzyloxy)-2-[(pyridin-4-ylmethyl)-amino]-benzamide]
63.1 nM	O=C(NOCc1ccccc1)c1ccccc1NCc1ccc2occc2c1 [Compound 198, 2-[(Benzofuran-5-ylmethyl)-amino]-N-benzyloxy-benzamide]
31.6 nM	CC(=O)OCC(=O)Nc1cc(CNc2ccccc2C(=O)NOCC2CCCC2)ccn1 [compound 223]
50.1 nM	O=C(NOCc1cccc(Cl)c1F)c1ccccc1NCc1ccncc1 [Compound 25, N-(3-Chloro-2-fluoro-benzyloxy)-2-[(pyridin-4-ylmethyl)-amino]-benzamide]
6.31 nM	O=C(NOCc1ccccc1OC(F)F)c1ccccc1NCc1ccncc1 [Compound 69, N-(2-Difluoromethoxy-benzyloxy)-2-[(pyridin-4-ylmethyl)-amino]-benzamide]
5.01 nM	O=C(NOCC1CCCC1)c1ccccc1NCc1ccnc(NC(=O)C2CC2)c1 [compound 227]
15.8 nM	N#Cc1ccc(CONC(=O)c2ccccc2NCc2ccncc2)c(Cl)c1 [Compound 78, N-(2-Chloro-4-cyano-benzyloxy)-2-[(pyridin-4-ylmethyl)-amino]-benzamide]
50.1 nM	N#Cc1ccc(Br)c(CONC(=O)c2ccccc2NCc2ccncc2)c1 [Compound 81, N-(2-Bromo-5-cyano-benzyloxy)-2-[(pyridin-4-ylmethyl)-amino]-benzamide]
31.6 nM	COc1cccc(CONC(=O)c2ccccc2NCc2ccncc2)c1 [Compound 8, N-(3-Methoxy-benzyloxy)-2-[(pyridin-4-ylmethyl)-amino]-benzamide]
79.4 nM	COc1ccc(CNc2ccccc2C(=O)NOCc2ccccc2)cn1 [compound 236]
31.6 nM	O=C(NOCc1ccccc1C(F)(F)F)c1ccccc1NCc1ccncc1 [Compound 5, 2-[(Pyridin-4-ylmethyl)-amino]-N-(2-trifluoromethyl-benzyloxy)-benzamide]
6.31 nM	CC(=O)OCC(=O)Nc1cc(CNc2ccccc2C(=O)NOCc2ccc(C#N)cc2)ccn1 [compound 222]
25.1 nM	O=C(NOCc1cc2c(cc1Cl)OCO2)c1ccccc1NCc1ccncc1 [Compound 71, N-(6-Chloro-benzo[1,3]dioxol-5-ylmethoxy)-2-[(pyridin-4-ylmethyl)amino]-benzamide]
79.4 nM	CN(C)CCNC(=O)c1cccc(CONC(=O)c2ccccc2NCc2ccncc2)c1 [Compound 96, N-[3-(2-dimethylaminoethylcarbamoyl)-benzyloxy]-2-[(pyridin-4-ylmethyl)-amino]-benzamide]
63.1 nM	COc1ccc(CONC(=O)c2ccccc2NCc2ccncc2)cc1C(F)(F)F [Compound 63, N-(4-Methoxy-3-trifluoromethyl-benzyloxy)-2-[(pyridin-4-ylmethyl)-amino]-benzamide]
63.1 nM	Cc1ccc(CONC(=O)c2ccccc2NCc2ccncc2)cc1C(F)(F)F [Compound 62, N-(4-Methyl-3-trifluoromethyl-benzyloxy)-2-[(pyridin-4-ylmethyl)-amino]-benzamide]
50.1 nM	O=C(NOCc1ccc(Cl)c(Cl)c1)c1ccccc1NCc1ccncc1 [Compound 15, N-(3,4-Dichloro-benzyloxy)-2-[(pyridine-4-ylmethyl)-amino]-benzamide]

Compound	IC50
CCC(CC)CONC(=O)c1ccccc1NCc1ccncc1 [Compound 117, N-(2-Ethyl-butoxy)-2-[(pyridin-4-ylmethyl)-amino]-benzamide]	12.6 nM
